{
  "source": "patent US10154981B2",
  "about": "“Use of a feed composition for reducing methane emission in ruminants, and/or to improve ruminant performance” (DSM IP ASSETS B.V., priority 2011, dated 2018)",
  "system": "rumen liquor",
  "assay": "In vitro test for methane production (modified Hohenheim Forage value Test, HFT)",
  "details": "for Effect on Methanogenesis (% compared to control) / Effect on VFA production (% compared to control): artificial TMR, 8 hours at 39° C.; for Effect on Methanogenesis (% compared to control) / Effect on VFA production (% compared to control) / VFA profile (as percentage of total VFA) Ace. / VFA profile (as percentage of total VFA) But. / VFA profile (as percentage of total VFA) Prop.: average of three experiments; for VFA profile (as percentage of total VFA) Ace.: acetate; for VFA profile (as percentage of total VFA) But.: butyrate; for VFA profile (as percentage of total VFA) Prop.: propionate",
  "data": [
    {"compound": "O=[N+]([O-])OCCCO", "note": "[3-nitrooxy propanol, 3-Nitrooxypropanol]", "values": [
      {"measurement": "effect on the acetate/propionate ratio (in words)", "setting": "3-nitrooxy propanol at 0.01% DM when combined with monensin", "value": "further additive effect"},
      {"measurement": "methane inhibition (in words)", "setting": "3-nitrooxy propanol used at 0.01% DM", "value": "maximal methane inhibition"},
      {"measurement": "Effect on Methanogenesis (% compared to control)", "setting": "Dose 0.005 % DM", "value": "−21", "unit": "%"},
      {"measurement": "Effect on VFA production (% compared to control)", "setting": "Dose 0.005 % DM", "value": "−3", "unit": "%"},
      {"measurement": "Effect on Methanogenesis (% compared to control)", "setting": "Dose 0.01 % DM", "value": "−97", "unit": "%"},
      {"measurement": "Effect on VFA production (% compared to control)", "setting": "Dose 0.01 % DM", "value": "−13", "unit": "%"},
      {"measurement": "VFA profile (as percentage of total VFA) Ace.", "setting": "Dose 0.005 % DM", "value": "57 percentage of total VFA"},
      {"measurement": "VFA profile (as percentage of total VFA) Ace.", "setting": "Dose 0.01 % DM", "value": "50 percentage of total VFA"},
      {"measurement": "VFA profile (as percentage of total VFA) But.", "setting": "Dose 0.005 % DM", "value": "7 percentage of total VFA"},
      {"measurement": "VFA profile (as percentage of total VFA) But.", "setting": "Dose 0.01 % DM", "value": "8 percentage of total VFA"},
      {"measurement": "VFA profile (as percentage of total VFA) Prop.", "setting": "Dose 0.005 % DM", "value": "36 percentage of total VFA"},
      {"measurement": "VFA profile (as percentage of total VFA) Prop.", "setting": "Dose 0.01 % DM", "value": "42 percentage of total VFA"}
    ]},
    {"compound": "CC[C@@]1([C@@H]2O[C@@H]([C@H]3O[C@@](O)(CO)[C@H](C)C[C@@H]3C)C[C@@H]2C)CC[C@H]([C@]2(C)CC[C@]3(C[C@H](O)[C@@H](C)[C@@H]([C@@H](C)[C@@H](OC)[C@H](C)C(=O)O)O3)O2)O1", "note": "[Monensin, monensin, reference compound]", "values": [
      {"measurement": "Effect on Methanogenesis (% compared to control)", "setting": "Dose 0.01 % DM", "value": "−23", "unit": "%"},
      {"measurement": "Effect on VFA production (% compared to control)", "setting": "Dose 0.01 % DM", "value": "−6", "unit": "%"},
      {"measurement": "VFA profile (as percentage of total VFA) Ace.", "setting": "Dose 0.01 % DM", "value": "56 percentage of total VFA"},
      {"measurement": "VFA profile (as percentage of total VFA) But.", "setting": "Dose 0.01 % DM", "value": "6 percentage of total VFA"},
      {"measurement": "VFA profile (as percentage of total VFA) Prop.", "setting": "Dose 0.01 % DM", "value": "38 percentage of total VFA"}
    ]}
  ]
}
